# Data as given in patent publication US11679098B2, “Methods for treating diseases” (UNIVERSITY OF LOUISVILLE RESEARCH FOUNDATION, INC., priority 2018, dated 2023).
# What was measured:
# [1] = tested on: MGST1 knockout A549 cells; experiment: Relative proliferation of MGST1 knockout A549 cells (CRISPR/Cas9); assay type: cell-based, human; conditions: two different gRNA sequences, 72 h
# Protocol: FIG. 3: To assess the role of MGST1 in XB05 activity, we engineered MGST1 knockout cells using CRISPR/Cas9 technology. Western blot analysis indicating the knockout of MGST1 in A549 cells.
# (§1) FIG. 4: To assess the role of MGST1 in XB05 activity, we engineered MGST1 knockout cells using CRISPR/Cas9 technology. Effect of XB05 treatment (72 h) on the relative proliferation of two independent clones of A549 cancer cells that express MGST1 (non-transfected, non-targeting gRNA) or where MGST1 was knocked out (gRNA #2, gRNA 3).
# Cell proliferation & viability assays. Anti-proliferative activity of XB05 and other compounds was evaluated using a previously published 3-(4,5-dimethylthiazol-2-yl)-2,5-diphenyltetrazolium bromide (MTT) assay protocol (MORGAN “Tetrazolium (MTT) assay for cellular viability and activity” Methods Mol Biol. (1998) Vol. 79, pp. 179-83, which is herein incorporated by reference in its entirety, BATES et al. “Antiproliferative activity of G-rich oligonucleotides correlates with protein binding” J Biol Chem. (1999) Vol. 274, No. 37, pp. 26369-26377, which is herein incorporated by reference in its entirety, SALIPUR et al. “A novel small molecule that induces oxidative stress and selectively kills malignant cells” Free Radic Biol Med. (2014) Vol. 68, pp. 110-121, which is herein incorporated by reference in its entirety). […]
# [2] = DTNB assay for reactivity with free thiols, cysteine; assay type: physicochemical
# Protocol: (§2) Dithiobis-2-nitrobenzioc acid (DTNB) assay for free sulfhydryls. Similar to previously described in SALIPUR et al. “A novel small molecule that induces oxidative stress and selectively kills malignant cells” Free Radic Biol Med. (2014) Vol. 68, pp. 110-121, which is herein incorporated by reference in its entirety, reactivity with free sulfhydryls was evaluated using DTNB (Sigma). Briefly, a 4× solution of DTNB (6 mM DTNB, 50 mM sodium acetate in 100 mM Tris-HCl, pH 8.0) and solutions of 0.5 mM cysteine (Sigma) and reduced glutathione (GSH, Sigma) in 100 mM Tris-HCl, pH 8.0 were freshly prepared. The 200 mM stock solutions of XB05, other compounds, diethylmaleate (Sigma), and maleimide (Sigma) were prepared in 100% DMSO, and subsequently diluted to 2× working solutions in 100 mM Tris-HCl, pH 8.0. Thiol compounds (final concentration 0.25 mM) and thiol-reactive compounds (final concentrations 0.04-5 mM) or vehicle were added in duplicate to a 96-well plate and incubated for 30 min at 37° C. DTNB solution was then added to each well (final concentration 400 μM), and incubated at room temperature for an additional 5 min. Absorbance at 412 nm was determined by a Biotek HT Synergy plate reader (Winooski, Vt.).
# [3] = DTNB assay for reactivity with free thiols, reduced glutathione; assay type: physicochemical
# Protocol: as §2
# [4] = tested on: NCI60 human tumor cell line panel; experiment: NCI60 human tumor cell line screen; assay type: cell-based
# Text: FIG. 1: Screens to Identify the role of Microsomal glutathione S-transferase 1 (MGST1). Results from the NCI's 60 human tumor cell lines screen. The COMPARE algorithm was used to probe microarray results from the cell lines to identify gene expression that correlated with this unusual pattern of growth inhibition.
# NCI60 human tumor cell line screen of XB05 activity. To further investigate the initial observations of XB05's anti-cancer activities, XB05 was submitted to the National Cancer Institute's Developmental Therapeutics Program for testing with the NCI60 human tumor cell line panel. This panel consists of 60 well-characterized human tumor cell lines (SHOEMAKER “The NCI60 human tumour cell line anticancer drug screen” Nat Rev Cancer (2006) Vol. 6, No. 10, Vol. 813-823, which is herein incorporated by reference in its entirety).
# [5] = tested on: A549 (lung adenocarcinoma); experiment: MTT antiproliferative assay in A549 cells; assay type: cell-based, human
# Protocol: (§3) Cell culture. A549 and IMR-90 cells were purchased from the American Type Culture Collection (ATCC), while HOP-62 and HOP-92 were obtained from the cell line repository at the National Cancer Institute. Cells were grown in the appropriate medium supplemented with 10% fetal bovine serum (FBS, Life Technologies, Grand Island, N.Y.), 62.5 μg/mL penicillin and 100 μg/mL streptomycin (Life Technologies) in a humidified incubator at 37° C. with 5% CO2. The media were as follows: Dulbecco's modified Eagle's medium (DMEM, Life Technologies) for A549 cells; RPMI 1640 (Life Technologies) for HOP-62 and HOP-92 cells; Eagle's minimal essential medium (EMEM) with Eagle's balanced salt solution (EBSS), 2 mM L-glutamine, 1500 mg/L sodium bicarbonate (Lonza, Walkersville, Md.), supplemented with 1 mM sodium pyruvate (Life Technologies) and non-essential amino acids (Life Technologies) for IMR-90 cells. Cell lines were verified with a 9-marker short tandem repeat profile and inter-species contamination test (Idexx BioResearch), although A549 cells utilized in proliferation assays were missing the Y allele at the amelogenin marker.
# (§4) Cell proliferation & viability assays. Anti-proliferative activity of XB05 and other compounds was evaluated using a previously published 3-(4,5-dimethylthiazol-2-yl)-2,5-diphenyltetrazolium bromide (MTT) assay protocol (MORGAN “Tetrazolium (MTT) assay for cellular viability and activity” Methods Mol Biol. (1998) Vol. 79, pp. 179-83, which is herein incorporated by reference in its entirety, BATES et al. “Antiproliferative activity of G-rich oligonucleotides correlates with protein binding” J Biol Chem. (1999) Vol. 274, No. 37, pp. 26369-26377, which is herein incorporated by reference in its entirety, SALIPUR et al. “A novel small molecule that induces oxidative stress and selectively kills malignant cells” Free Radic Biol Med. (2014) Vol. 68, pp. 110-121, which is herein incorporated by reference in its entirety). Cells were seeded in quadruplicate wells in 96-well plates and allowed to adhere overnight. […] After 72 hrs of treatment with XB05 or other compounds, MTT (Sigma, St. Louis, Mo.) was added for 4 hrs prior to cell lysis. Each assay was performed in at least triplicate.
# (§5) XB05 and related compounds were assessed for anti-proliferative activity in malignant (A549) and non-malignant (IMR-90) cells (Table A2).
# [6] = tested on: IMR-90 (non-malignant lung fibroblasts); experiment: MTT antiproliferative assay in IMR-90 cells; assay type: cell-based; conditions: Homo sapiens, 72 hrs treatment, read-out: MTT Antiproliferative Activity - IC50 (μM) IMR0 (non-malignant lung fibroblasts)
# Protocol: as §3, §4, §5
# [7] = tested on: A549 cells (non-transfected, non-targeting gRNA); experiment: Relative proliferation of A549 cells that express MGST1 (non-transfected, non-targeting gRNA); assay type: cell-based, human; conditions: 72 h, non-transfected A549 and non-targeting gRNA
# Protocol: as §1
# Cell proliferation & viability assays. Anti-proliferative activity of XB05 and other compounds was evaluated using a previously published 3-(4,5-dimethylthiazol-2-yl)-2,5-diphenyltetrazolium bromide (MTT) assay protocol (MORGAN “Tetrazolium (MTT) assay for cellular viability and activity” Methods Mol Biol. (1998) Vol. 79, pp. 179-83, which is herein incorporated by reference in its entirety, BATES et al. “Antiproliferative activity of G-rich oligonucleotides correlates with protein binding” J Biol Chem. (1999) Vol. 274, No. 37, pp. 26369-26377, which is herein incorporated by reference in its entirety, SALIPUR et al. “A novel small molecule that induces oxidative stress and selectively kills malignant cells” Free Radic Biol Med. (2014) Vol. 68, pp. 110-121, which is herein incorporated by reference in its entirety). Cells were seeded in quadruplicate wells in 96-well plates and allowed to adhere overnight. […] After 72 hrs of treatment with XB05 or other compounds, MTT (Sigma, St. Louis, Mo.) was added for 4 hrs prior to cell lysis. […]
structure (smiles),measurement,setting,value
CCCCCC(O)C#CC(F)(F)Br (stereo not drawn) [XB05],effect on cell proliferation after knockout of MGST1,[1],reversed
same,DTNB Reactivity with Thiols - DTNB assay with Cysteine,"[2]; 0.25 mM cysteine, 30 min at 37° C., pH 8.0",ND (DTNB ND - not detected at concentrations up to 2.5 mM)
same,reactivity with thiol of cysteine,[2]; FIG. 5,not reactive
same,DTNB Reactivity with Thiols - DTNB assay with Glutathione,"[3]; 0.25 mM reduced glutathione, 30 min at 37° C., pH 8.0",ND (DTNB ND - not detected at concentrations up to 2.5 mM)
same,reactivity with thiol of glutathione,[3]; FIG. 6,not reactive
same,activity in the NCI60 screen,[4]; 60 human tumor cell lines,activity against about one-third of cancer cells
same,fold less sensitive (other cell lines in the screen),[4]; less active cell lines versus sensitive cell lines,up to 1000 fold
same,IC30 value in A549 cells,[5],1000 nM
same,IC50,"[5]; Homo sapiens, 72 hrs treatment, MTT",0.4 µM
same,IC50,[6],2.5 µM
same,"cell proliferation, % of vehicle",[7]; 1 μM,approximately 20%
same,"cell proliferation, % of vehicle",[7]; 2 μM,~5%
